Experiments:
KRAS G12D:SOS1 = KRAS G12D:SOS1 (Homo sapiens, UniProt P01116, G12D); test: KRAS G12D:SOS1 GDP TR-FRET assay; assay type: binding; conditions: GST-KRAS G12D 37.5 nM, GDP 10 μM, His-SOS1 18 nM
Description: (§1) KRAS:SOS1 GDP TR-FRET Assay
(§2) This assay was used to identify compounds which competitively interact with the binding of KRAS protein to SOS1 in the presence of GDP. […] All protein and reaction solutions were prepared in assay buffer containing DPBS pH7.5, 0.1% BSA, and 0.05% Tween 20. Purified GST-tagged WT KRAS or KRAS G12D protein (37.5 nM final assay concentration) and GDP (Sigma, 10 μM final assay concentration) mixture, a serially diluted compound (top final concentration is 50 μM or 10 uM, 3-fold serially diluted, 10 points) and His-tagged SOS1 protein (18 nM final assay concentration) were added into the assay plates (384 well microplate, black, Corning) sequentially. Plates are incubated at 24° C. for 1 hr. Following the incubation, Mab Anti-GST-Tb cryptate (Cisbio) and […] (Cisbio) were added and further incubated at 24° C. for another 1 hr. The TR-FRET signals (ex337 nm, em665 nm/620 nm) were read on BMG PHERAstar FSX instrument. The inhibition percentage of KRAS protein binding with SOS1 in presence of increasing concentrations of compounds was calculated based on the ratio of fluorescence at 665 nm to that at 620 nm. The IC50 value of each compound was calculated from fitting the data to the four-parameter logistic model by Dotmatics.

WT KRAS:SOS1 = WT KRAS:SOS1 (Homo sapiens, UniProt P01116); test: KRAS WT:SOS1 GDP TR-FRET assay; assay type: binding; conditions: GST-WT KRAS 37.5 nM, GDP 10 μM, His-SOS1 18 nM
Description: as §1, §2

[1] = tested on: pERK1/2 (THR202/TYR204) in AsPC-1 cells; test: pERK Assay (HTRF) in AsPC-1 cells; assay type: cell-based; conditions: Homo sapiens, ASPC1, 2 h compound treatment
Description: AsPC-1 cell line was used in this study. […] 30000 cells per well were seeded into a 96-well plate and incubated overnight. […] After 2 h compound treatment, cells were lysed, and the pERK1/2 (THR202/TYR204) level in the cell lysates was detected by HTRF kit (Cisbio). In brief, a total of 16 μL of cell lysate from each well of a 96-well plate was transferred to a 384-well white assay plate. Lysate from each well was incubated with 2 μL of Eu3+-cryptate (donor) labeled anti-phospho-ERK1/2 and 2 μL of D2 (acceptor) labeled anti-phospho-ERK1/2 antibodies (Cisbio) overnight in dark at room temperature. When donor and acceptor are in close proximity, excitation of the donor with laser triggers a Fluorescence Resonance Energy Transfer (FRET) towards the acceptor, which in turn fluoresces at 655 nm wavelength. FRET signals were measured using a PHERAstar FSX reader (BMG Labtech).

KRAS G12D:SOS1, sequence (P01116 1-188 isoform P01116-2 G12D): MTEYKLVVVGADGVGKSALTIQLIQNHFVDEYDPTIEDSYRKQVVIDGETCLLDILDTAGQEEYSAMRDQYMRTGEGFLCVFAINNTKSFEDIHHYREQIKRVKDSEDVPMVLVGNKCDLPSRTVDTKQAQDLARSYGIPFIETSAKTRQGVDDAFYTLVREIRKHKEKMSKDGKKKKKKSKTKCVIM
WT KRAS:SOS1, sequence (P01116 1-188 isoform P01116-2): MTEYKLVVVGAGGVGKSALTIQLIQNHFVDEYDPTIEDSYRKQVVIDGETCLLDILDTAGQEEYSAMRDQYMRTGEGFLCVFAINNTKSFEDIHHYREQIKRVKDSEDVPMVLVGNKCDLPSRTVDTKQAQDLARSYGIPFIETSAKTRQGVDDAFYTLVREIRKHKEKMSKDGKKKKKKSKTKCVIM

Compound	IC50 (KRAS G12D:SOS1) [nM]	IC50 (WT KRAS:SOS1) [nM]	IC50 [1] [nM]
CN(C)CCCOc1nc(N2CCNCC2)c2cc(Cl)c(-c3cc(O)cc4ccccc34)c(F)c2n1 [Example E1, 4-(6-chloro-2-(3-(dimethylamino)propoxy)-8-fluoro-4-(piperazin-1-)quinazolin-7-yl)naphthalen-2-ol]	1870	26900	> 10000
CN(C)CCCOc1nc(N2CC3CC2CN3)c2cc(Cl)c(-c3ccc(F)c4sc(N)nc34)c(F)c2n1 (stereo not drawn) [Example E3, 4-(4-(2,5-diazabicyclo[2.2.1]heptan-2-yl)-6-chloro-2-(3-(dimethylamino)propoxy)-8-fluoroquinazolin-7-yl)-7-fluorobenzo[d]thiazol-2-amine]	68	3290	> 10000
CN(C)CCCOc1nc(N2CC3CCC2CN3)c2cc(Cl)c(-c3ccc(F)c4sc(N)nc34)c(F)c2n1 (stereo not drawn) [Example E4, 4-(4-(2,5-diazabicyclo[2.2.2]octan-2-yl)-6-chloro-2-(3-(dimethylamino)propoxy)-8-fluoroquinazolin-7-yl)-7-fluorobenzo[d]thiazol-2-amine]	39	1100	> 10000
CC(CN1CCCCC1)Oc1nc(N2CC3CCC(C2)N3)c2cc(Cl)c(-c3ccc(F)c4sc(N)nc34)c(F)c2n1 (stereo not drawn) [Example E5, 4-(4-(3,8-diazabicyclo [3.2.1]octan-3-yl)-6-chloro-8-fluoro-2-((1-(piperidin-1-yl)propan-2-yl)_oxy)quinazolin-7-yl)-7-fluorobenzo[d]thiazol-2-amine]	20	402	2870
CC(CN1CCCCC1)Oc1nc(N2CC3CC(C2)N3)c2cc(Cl)c(-c3ccc(F)c4sc(N)nc34)c(F)c2n1 (stereo not drawn) [Example E6, 4-(4-(3,6-diazabicyclo[3.1.1]heptan-3-yl)-6-chloro-8-fluoro-2-((1-(piperidin-1-yl)propan-2-yl)oxy)quinazolin-7-yl)-7-fluorobenzo[d]thiazol-2-amine]	18	1060	7080
Nc1nc2c(-c3c(Cl)cc4c(N5CC6CCC(C5)N6)nc(OCC56CCCN5CCC6)nc4c3F)ccc(F)c2s1 [Example E7, 4-(4-(3,8-diazabicyclo[3.2.1]octan-3-yl)-6-chloro-8-fluoro-2-((tetrahydro-1H-pyrrolizin-7a(5H)-yl)methoxy)quinazolin-7-yl)-7-fluorobenzo[d]thiazol-2-amine]	4.7	11	2640
CC(CN1CCCCC1)Oc1nc(N2C3CCC2CNC3)c2cc(Cl)c(-c3ccc(F)c4sc(N)nc34)c(F)c2n1 (stereo not drawn) [Example E8, 4-(4-(3,8-diazabicyclo[3.2.1]octan-8-yl)-6-chloro-8-fluoro-2-((1-(piperidin-1-yl)propan-2-yl)oxy)quinazolin-7-yl)-7-fluorobenzo[d]thiazol-2-amine]	6.7	50	1150
CC(CN1CCCCC1)Oc1nc(N2C3CCC2C(N)C3)c2cc(Cl)c(-c3ccc(F)c4sc(N)nc34)c(F)c2n1 (stereo not drawn) [Example E9, 4-(4-(2-amino-7-azabicyclo[2.2.1]heptan-7-yl)-6-chloro-8-fluoro-2-((1-(piperidin-1-yl)propan-2-yl)oxy)quinazolin-7-yl)-7-fluorobenzo[d]thiazol-2-amine]	26	381	7690
CC(CN1C2CCC1CNC2)Oc1nc(N2CC3CCC(C2)N3)c2cc(Cl)c(-c3ccc(F)c4sc(N)nc34)c(F)c2n1 (stereo not drawn) [Example E10, 4-(2-((1-(3,8-diazabicyclo[3.2.1]octan-8-yl)propan-2-yl)oxy)-4-(3,8-diazabicyclo[3.2.1]octan-3-yl)-6-chloro-8-fluoroquinazolin-7-yl)-7-fluorobenzo[d]thiazol-2-amine]	5.7	387	> 10000
C[C@@H](CN1CCCCC1)Oc1nc(N2CC3CCC(C2)N3)c2cc(Cl)c(-c3ccc(F)c4sc(N)nc34)c(F)c2n1 [Example E11, 4-(4-(3,8-diazabicyclo[3.2.1]octan-3-yl)-6-chloro-8-fluoro-2-(((S)-1-(piperidin-1-yl)propan-2-yl)oxy)quinazolin-7-yl)-7-fluorobenzo[d]thiazol-2-amine]	1.9	30	859
C[C@@H](CN1CCCCC1)Oc1nc(N2CC3CC(C2)N3)c2cc(Cl)c(-c3ccc(F)c4sc(N)nc34)c(F)c2n1 [Example E12]	3.5	124	2020
CC(CN1CCNCC1)Oc1nc(N2CC3CCC(C2)N3)c2cc(Cl)c(-c3ccc(F)c4sc(N)nc34)c(F)c2n1 (stereo not drawn) [Example E13, 4-(4-(3,8-diazabicyclo[3.2.1]octan-3-yl)-6-chloro-8-fluoro-2-((1-(piperazin-1-yl)propan-2-yl)oxy)quinazolin-7-yl)-7-fluorobenzo[d]thiazol-2-amine]	8.3	537	> 10000
CO[C@@H]1C[C@@H](COc2nc(N3CC4CCC(C3)N4)c3cc(Cl)c(-c4ccc(F)c5sc(N)nc45)c(F)c3n2)N(C)C1 [Example E14, 4-(4-(3,8-diazabicyclo[3.2.1]octan-3-yl)-6-chloro-8-fluoro-2-(((2S,4R)-4-methoxy-1-methylpyrrolidin-2-yl)methoxy)quinazolin-7-yl)-7-fluorobenzo[d]thiazol-2-amine]	5.3	68	1160
CN1C[C@H](F)C[C@H]1COc1nc(N2CC3CCC(C2)N3)c2cc(Cl)c(-c3ccc(F)c4sc(N)nc34)c(F)c2n1 [Example E15, 4-(4-(3,8-diazabicyclo[3.2.1]octan-3-yl)-6-chloro-8-fluoro-2-(((2S,4R)-4-fluoro-1-methylpyrrolidin-2-yl)methoxy)quinazolin-7-yl)-7-fluorobenzo[d]thiazol-2-amine]	4.4	83	574
CN1CCC[C@H]1COc1nc(N2CC3CCC(C2)N3)c2cc(Cl)c(-c3ccc(F)c4sc(N)nc34)c(F)c2n1 [Example E16, 4-(4-(3,8-diazabicyclo[3.2.1]octan-3-yl)-6-chloro-8-fluoro-2-(((S)-1-methylpyrrolidin-2-yl)methoxy)quinazolin-7-yl)-7-fluorobenzo[d]thiazol-2-amine]	2.8	27	1520
C[C@@H](CN1CCC(F)(F)CC1)Oc1nc(N2CC3CCC(C2)N3)c2cc(Cl)c(-c3ccc(F)c4sc(N)nc34)c(F)c2n1 [Example E17, 4-(4-(3,8-diazabicyclo[3.2.1]octan-3-yl)-6-chloro-2-(((S)-1-(4,4-difluoropiperidin-1-yl)propan-2-yl)oxy)-8-fluoroquinazolin-7-yl)-7-fluorobenzo[d]thiazol-2-amine]	4.2	785	2880
C[C@@H](CN1CCCCC1)Oc1nc(N2C3CCC2CNC3)c2cc(Cl)c(-c3ccc(F)c4sc(N)nc34)c(F)c2n1 [Example E18, 4-(4-(3,8-diazabicyclo[3.2.1]octan-8-yl)-6-chloro-8-fluoro-2-(((S)-1-(piperidin-1-yl)propan-2-yl)oxy)quinazolin-7-yl)-7-fluorobenzo[d]thiazol-2-amine]	2.5	35	528
C[C@@H](CN1CCC(F)(F)CC1)Oc1nc(N2C3CCC2CNC3)c2cc(Cl)c(-c3ccc(F)c4sc(N)nc34)c(F)c2n1 [Example E19, 4-(4-(3,8-diazabicyclo[3.2.1]octan-8-yl)-6-chloro-2-(((S)-1-(4,4-difluoropiperidin-1-yl)propan-2-yl)oxy)-8-fluoroquinazolin-7-yl)-7-fluorobenzo[d]thiazol-2-amine]	10	566	3410
C[C@@H](CN1CCC(F)(F)C1)Oc1nc(N2CC3CCC(C2)N3)c2cc(Cl)c(-c3ccc(F)c4sc(N)nc34)c(F)c2n1 [Example E20, 4-(4-(3,8-diazabicyclo[3.2.1]octan-3-yl)-6-chloro-2-(((S)-1-(3,3-difluoropyrrolidin-1-yl)propan-2-yl)oxy)-8-fluoroquinazolin-7-yl)-7-fluorobenzo[d]thiazol-2-amine]	25	> 10000	7260
